Measurements taken from publication PMC8151276, “An Integrated Approach toward NanoBRET Tracers for Analysis of GPCR Ligand Engagement” (Molecules, 2021).

Biological target: T1, NPSR1 (Homo sapiens, UniProt Q6W5P4)
T1 construct: purchased Promega (in-house HiBiT-GPCR construct library, NanoBRET)
T1 sequence (Q6W5P4 1-371): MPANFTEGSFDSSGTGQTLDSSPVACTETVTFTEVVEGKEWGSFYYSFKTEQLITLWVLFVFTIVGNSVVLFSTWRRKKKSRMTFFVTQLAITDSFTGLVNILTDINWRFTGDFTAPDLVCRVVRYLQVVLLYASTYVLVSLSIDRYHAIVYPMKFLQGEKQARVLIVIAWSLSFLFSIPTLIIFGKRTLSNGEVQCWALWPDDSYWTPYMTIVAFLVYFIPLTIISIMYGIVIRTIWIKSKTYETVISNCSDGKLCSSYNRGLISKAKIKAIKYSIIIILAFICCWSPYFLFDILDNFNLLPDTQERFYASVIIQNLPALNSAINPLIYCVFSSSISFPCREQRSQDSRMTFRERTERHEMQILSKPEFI
Experiment: NanoBRET screen HiBiT-NPSR1 in HEK293
Format: binding
Method: Each tracer candidate was screened across the entire library of HiBiT-GPCR constructs using NanoBRET as the detection modality. As depicted in Figure 4A, the specificity of interactions was evaluated through decrease in BRET due to competitive displacement of a bound tracer by excess parental compound. Each tracer was analyzed for binding to each HiBiT-GPCR fusion in the absence and in the presence of competing parental compound. Briefly, HEK293 cells were transfected with HiBiT-GPCR constructs diluted into promoterless DNA to reduce expression and maximize translocation to the cell surface. Each tracer candidate was then screened at concentrations of 1 μM and 0.1 μM across cells expressing these fusions. Cells were treated for 1.5 h with tracer either alone or in the presence of 20 μM competing parental compound (i.e., control). BRET was measured upon addition of purified LgBiT and subsequent complementation with HiBiT genetically fused to a GPCR. The specificity of interactions was assessed through a decrease in BRET signal due to competitive displacement of the bound tracer. To further gauge the robustness of these interactions, the fold response over the control (i.e., BRETtracer/BRETcontrol) was calculated. We chose a 1.5-fold response, which translates to ≥7-fold signal over noise as the minimal threshold required to score an interaction as positive.
HiBiT-GPCR DNA constructs were diluted in 10 mM Tris pH 8 to a final concentration of 0.01 μg/μL, arrayed in 96-well plates and stored at −20 °C. For transfection, HEK293 cells were suspended in Opti-MEM (without phenol red) supplemented with 2% fetal bovine serum (Seradigm) and 100 units/mL penicillin–streptomycin (Gibco) at a final concentration of 220,000 cells/mL and dispensed into white 96-well plates at 90 μL/well. Subsequent transfections and screens were carried using an Agilent Bravo Automated Liquid Handling Platform. First, the 96-well HiBiT DNA arrays were diluted 25-fold in Opti-MEM (without serum or phenol red) to a final concentration of 0.0004 μg/μL and 20 μL of the diluted DNAs were transferred into new 96-well plates. Next, promoterless carrier DNA (1 μg/μL) was diluted 25-fold (0.04 μg/μL) and then dispensed into the diluted arrays at 20 μL/well. Following brief mixing, Viafect transfection reagent (Promega) diluted 16-fold into Opti-MEM was dispensed into the plates at 40 μL/well. After mixing by pipetting, plates were incubated for 10 min on the pipetting station deck. The DNA-transfection reagent complexes were then added to plates containing cells. To facilitate the screen, 10 μL of DNA-transfection reagent complexes were added in duplicates to the top 4 and bottom 4 rows, resulting in two identical 48-well arrays per plate. Plates with transfected cells were incubated for 18–20 h at 37 °C/5% CO2. A screen of each tracer across the entire library using two different concentrations requires duplicate plates of transfected cells. Depending on the number of tracers being screened, transfections can be scaled up using the same ratios. The next day, for each tracer, four 20× screening solutions in tracer dilution buffer (Promega) were prepared: two duplicates at final concentration of 20 μM and two duplicates at a final concentration of 2 μM. […] The four resulting solutions were diluted 4-fold in Opti-MEM without serum or phenol red to generate 5× solutions (5 µM and 0.5 µM tracer +/− 100 μM competing compound). To screen the library, a BioTek MultiFlo FX liquid dispenser was used to dispense 22.5 µL of tracer solution to the top 4 rows and 22.5 µL tracer + competing compound solution to the 4 bottom rows. Plates were briefly mixed on an orbital shaker and incubated for 1.5 h at room temperature. […] Plates were briefly mixed on an orbital shaker and incubated for 15 min to allow complementation.

| Structure (SMILES) | NanoBRET Fold Response (NPSR1, tracer 0.1μM) | NanoBRET Fold Response (NPSR1, tracer 1μM) | further results |
| --- | --- | --- | --- |
| CCOC(=O)c1cc(C#N)c(N2CCC(C(=O)NS(=O)(=O)Cc3ccccc3/C=C/C(=O)NCCNC(=O)CCc3ccc4n3[B-](F)(F)[N+]3=C(c5ccc[nH]5)C=CC3=C4)CC2)nc1C [AZD1283-1-NB590] |  |  | NanoBRET Fold Response (NPSR1, 0.1μM): 1.02; NanoBRET Fold Response (NPSR1, 1μM): 1.06 |
| N#CN=C(NCCCOc1cccc(CN2CCCCC2)c1)NCCNC(=O)CCOCCOCCOCCOCCNC(=O)CCc1ccc2n1[B-](F)(F)[N+]1=C(c3ccc[nH]3)C=CC1=C2 [Aminopotentidine-2-NB590] | 0.99 | 1.01 |  |
| CN(C)CCC=C1c2ccccc2CCc2ccc(C(=O)NCCNC(=O)CCOCCOCCOCCOCCNC(=O)CCc3ccc4n3[B-](F)(F)[N+]3=C(c5ccc[nH]5)C=CC3=C4)cc21 [Amitriptyline-a-2-NB590] |  |  | NanoBRET Fold Response (tracer at 0.1μM): 1.01; NanoBRET Fold Response (tracer at 1μM): 0.99 |
| CN(C)CCC=C1c2ccccc2CCc2ccc(C(=O)NCCNC(=O)CCOCCOCCOCCOCCNC(=O)CCc3ccc4n3[B-](F)(F)[N+]3=C(c5ccc[nH]5)C=CC3=C4)cc21 [Amitriptyline-b-2-NB590] |  |  | NanoBRET Fold Response (tracer at 0.1μM, listed as amitriptyline-b-2-NB590): 0.95; NanoBRET Fold Response (tracer at 1μM, listed as amitriptyline-b-2-NB590): 1.15 |
| COc1ccc2c(n1)c(CCNC(C)=O)cn2CCNC(=O)CCc1ccc2n1[B-](F)(F)[N+]1=C(c3ccc[nH]3)C=CC1=C2 [Azamelatonin-1-NB590] |  |  | NanoBRET Fold Response (0.1μM tracer): 0.96; NanoBRET Fold Response (1μM tracer): 0.84 |
| COc1ccc2[nH]c(-c3ccc(CNC(=O)CCOCCOCCOCCOCCNC(=O)CCc4ccc5n4[B-](F)(F)[N+]4=C(c6ccc[nH]6)C=CC4=C5)cc3)c(CCNC(C)=O)c2n1 [AzomelatoninICO9-2-NB590] |  |  | NanoBRET Fold Response (0.1μM tracer): 0.98; NanoBRET Fold Response (1μM tracer): 0.96 |
| O=C(CCOCCOCCOCCOCCNC(=O)CCc1ccc2n1[B-](F)(F)[N+]1=C(c3ccc[nH]3)C=CC1=C2)NCCCN1CCN(C2=Nc3cc(Cl)ccc3Nc3ccccc32)CC1 [Clozapine-a-2-NB590] |  |  | NanoBRET Fold Response (NPSR1, 0.1μM tracer): 0.93; NanoBRET Fold Response (NPSR1, 1μM tracer): 1.15 |
| CN1CCN(C2=Nc3cc(Cl)ccc3Nc3ccc(CNC(=O)CCOCCOCCOCCOCCNC(=O)CCc4ccc5n4[B-](F)(F)[N+]4=C(c6ccc[nH]6)C=CC4=C5)cc32)CC1 [Clozapine-b-2-NB590] |  |  | NanoBRET Fold Response (NPSR1, 0.1μM tracer): 1.05; NanoBRET Fold Response (NPSR1, 1μM tracer): 0.98 |
| CN1CCN(C2=Nc3cc(Cl)ccc3N(CC(=O)NCCOCCOCCOCCOCCNC(=O)CCc3ccc4n3[B-](F)(F)[N+]3=C(c5ccc[nH]5)C=CC3=C4)c3ccccc32)CC1 [Clozapine-c-2-NB590] |  |  | NanoBRET Fold Response (NPSR1, 0.1μM tracer): 1.02; NanoBRET Fold Response (NPSR1, 1μM tracer): 1.02 |
| O=C(CCOCCOCCOCCOCCNC(=O)CCc1ccc2n1[B-](F)(F)[N+]1=C(c3ccc[nH]3)C=CC1=C2)NCCCN1CCN(C2=Nc3ccccc3Oc3ccc(Cl)cc32)CC1 [Loxapine-a-2-NB590] | 0.98 | 1.04 |  |
| COc1ccccc1N1CCN(CCCCN2C(=O)c3ccc(CNC(=O)CCOCCOCCOCCOCCNC(=O)CCc4ccc5n4[B-](F)(F)[N+]4=C(c6ccc[nH]6)C=CC4=C5)cc3C2=O)CC1 [NAN-190-2-NB590] | 0.90 | 0.93 |  |
| COc1ccccc1N1CCN(CCCCN2C(=O)c3ccc(CNC(=O)CCOCCNC(=O)c4ccc(CNC(=O)CCc5ccc6n5[B-](F)(F)[N+]5=C(c7ccc[nH]7)C=CC5=C6)cc4)cc3C2=O)CC1 [NAN-190-3-NB590] | 1.10 | 1.17 |  |
| O=C(CCc1ccc2n1[B-](F)(F)[N+]1=C(c3ccc[nH]3)C=CC1=C2)NCc1ccc(C(=O)NCCOCCC(=O)N[C@@H]2CC[C@@]3(O)[C@H]4Cc5ccc(O)c6c5[C@@]3(CCN4CC3CC3)[C@H]2O6)cc1 [Naltrexone-3-NB590] | 1.12 | 0.92 |  |
| Cc1cc2c(s1)Nc1ccccc1N=C2N1CCN(CCCNC(=O)CCOCCOCCOCCOCCNC(=O)CCc2ccc3n2[B-](F)(F)[N+]2=C(c4ccc[nH]4)C=CC2=C3)CC1 [Olanzapine-a-2-NB590] | 1.01 | 1.17 |  |
| O=C(CCc1ccc2n1[B-](F)(F)[N+]1=C(c3ccc[nH]3)C=CC1=C2)NCc1ccc(C(=O)NCCOCCOCCNCC(O)COc2cccc3ccccc23)cc1 (stereo not drawn) [Propranolol-3-NB590] |  |  | NanoBRET Fold Response (NPSR1, 0.1μM): 1.00; NanoBRET Fold Response (NPSR1, 1μM): 0.98 |
| O=C(CCc1ccc2n1[B-](F)(F)[N+]1=C(c3ccc[nH]3)C=CC1=C2)NCCOCCOCCNC(=O)OCCOCCN1CCN(C2=Nc3ccccc3Sc3ccccc32)CC1 [Quetiapine-a-2-NB590] | 0.87 | 0.90 |  |
| Cc1nc2n(c(=O)c1CCN1CCC(c3noc4cc(F)ccc34)CC1)CCCC2OC(=O)NCCOCCOCCOCCOCCNC(=O)CCc1ccc2n1[B-](F)(F)[N+]1=C(c3ccc[nH]3)C=CC1=C2 (stereo not drawn) [Risperidone-2-NB590] | 1.00 | 0.90 |  |
| CC(C)N(CC[C@H](c1ccccc1)c1cc(CCNC(=O)CCOCCOCCOCCOCCNC(=O)CCc2ccc3n2[B-](F)(F)[N+]2=C(c4ccc[nH]4)C=CC2=C3)ccc1O)C(C)C [Tolterodine-2-NB590] |  | 1.34 |  |
| CC(C)N(CC[C@H](c1ccccc1)c1cc(CCNC(=O)c2ccc(CNC(=O)CCc3ccc4n3[B-](F)(F)[N+]3=C(c5ccc[nH]5)C=CC3=C4)cc2)ccc1O)C(C)C [Tolterodine-BZ-NB590] | 1.12 | 0.99 |  |
| CCCn1c(=O)c2[nH]c(-c3ccc(OCC(=O)NCCNC(=O)CCOCCNC(=O)c4ccc(CNC(=O)CCc5ccc6n5[B-](F)(F)[N+]5=C(c7ccc[nH]7)C=CC5=C6)cc4)cc3)nc2n(CCC)c1=O [XAC-3-NB590] | 0.90 | 0.92 |  |
